# ± gives the standard deviation of the averaged measurements.
# How the values were obtained:
# Assay in all cases: level (log10 ratio to DMSO vehicle control); higher = higher biomarker level / cell amount than vehicle control
# Conditions in all cases: in DMSO
# [1] = compound: C=C(C)C(=O)OCC(F)(F)C(F)(F)C(F)(F)F [2,2,3,3,4,4,4-Heptafluorobutyl methacrylate]
# Protocol: (§1)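 BioMAP Diversity Plus panel of 12 human primary cell co-culture systems (3C, 4H, LPS, SAg, BT, BF4T, BE3C, CASM3C, HDF3CGF, KF3CT, MyoF, Mphg). Compounds were added 1 h before stimulation and left for 24 h (MyoF 48 h; BT 72 h for soluble read-outs or 6 d for IgG). Biomarkers were read by ELISA, cytotoxicity by SRB, PBMC viability and proliferation by Alamar Blue. Each well value was divided by the mean of 8 DMSO control wells on the same plate and log10 transformed; duplicate blinded samples were tested at 4 concentrations.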
# [2] = compound: Cc1ccc(S(=O)(=O)OCC(F)(F)C(F)(F)C(F)(F)C(F)(F)C(F)(F)C(F)F)cc1 [1H,1H,7H-Perfluoroheptyl 4-methylbenzenesulfonate]
# Protocol: as §1
# [3] = compound: FC(F)(F)C(F)(F)C(F)(F)C(F)(F)CCI [1H,1H,2H,2H-Perfluorohexyl iodide]
# Protocol: as §1
# [4] = compound: O=C(Cl)C(F)(F)C(F)(F)C(F)(F)C(=O)Cl [Hexafluoroglutaryl chloride]
# Protocol: as §1
# [5] = compound: OCC(F)(F)C(F)(F)C(F)(F)C(F)(F)C(F)(F)C(F)(F)C(F)(F)C(F)(F)CO [1H,1H,10H,10H-Perfluorodecane-1,10-diol]
# Protocol: as §1
# [6] = compound: OCC(F)(F)C(F)(F)C(F)(F)C(F)(F)C(F)(F)C(F)(F)F [6:1 Fluorotelomer alcohol]
# Protocol: as §1
Test System,level (log10) ([1]; 6700 nM),level (log10) ([1]; 20000 nM),level (log10) ([1]; 60000 nM),level (log10) ([2]; 6700 nM),level (log10) ([2]; 20000 nM),level (log10) ([2]; 60000 nM),level (log10) ([3]; 6700 nM),level (log10) ([3]; 20000 nM),level (log10) ([3]; 60000 nM),level (log10) ([4]; 6700 nM),level (log10) ([4]; 20000 nM),level (log10) ([4]; 60000 nM),level (log10) ([5]; 6700 nM),level (log10) ([5]; 20000 nM),level (log10) ([5]; 60000 nM),level (log10) ([6]; 6700 nM),level (log10) ([6]; 20000 nM),level (log10) ([6]; 60000 nM)
SAg:CD62E/E-Selectin,0.0045 ± 0.039,-0.0225 ± 0.011,0.0015 ± 0.019,0.021 ± 0.0028,0.007 ± 0.018,-0.0115 ± 0.028,-0.0095 ± 0.005,-0.014 ± 0.014,-0.008 ± 0.018,-0.018 ± 0.03,-0.024 ± 0.014,-0.012 ± 0.0042,-0.0215 ± 0.005,-0.015 ± 0.0099,-0.015,0.0085 ± 0.026,-0.001 ± 0.0085,0 ± 0.025
BE3C:HLA-DR,-0.0005 ± 0.015,0.006 ± 0.016,0.003 ± 0.035,-0.0155 ± 0.005,-0.0195 ± 0.012,-0.025 ± 0.0014,-0.0105 ± 0.0064,0 ± 0.0014,-0.005 ± 0.0042,-0.0075 ± 0.013,-0.016 ± 0.0057,-0.007 ± 0.0071,-0.0495 ± 0.019,-0.174 ± 0.022,-0.517,0.009 ± 0.025,-0.0085 ± 0.026,-0.077 ± 0.13
3C:CXCL9/MIG,-0.0035 ± 0.005,0.002,0.0095 ± 0.021,0.005 ± 0.011,-0.008 ± 0.0014,-0.01 ± 0.0042,0.0045 ± 0.00071,-0.0085 ± 0.005,0.007 ± 0.0057,-0.0035 ± 0.005,-0.004 ± 0.0014,0.002 ± 0.0085,-0.0145 ± 0.011,-0.016 ± 0.0071,-0.007,0.0065 ± 0.0035,0.0065 ± 0.0035,0.019
BE3C:EGFR,0.0195 ± 0.03,0.0155 ± 0.029,0.012 ± 0.017,-0.0255 ± 0.0035,-0.03 ± 0.035,-0.027 ± 0.0028,0.011 ± 0.047,-0.0005 ± 0.046,-0.0275 ± 0.063,0.009 ± 0.0099,0.0015 ± 0.0021,-0.0345 ± 0.0092,-0.031 ± 0.0085,-0.042,-0.102,0.0115 ± 0.0064,0.0035 ± 0.011,-0.0585 ± 0.081
BE3C:CD87/uPAR,-0.004 ± 0.0028,0.0075 ± 0.015,0.017 ± 0.027,0.026 ± 0.017,-0.004 ± 0.0085,0.005 ± 0.033,-0.0105 ± 0.019,-0.011,0.0285 ± 0.011,-0.0055 ± 0.0021,-0.009 ± 0.0028,0.011 ± 0.0085,-0.013 ± 0.011,-0.042 ± 0.024,-0.337,0.007 ± 0.017,-0.0075 ± 0.0078,0.0105 ± 0.035
BE3C:CXCL10/IP-10,0.0365 ± 0.029,0.0225 ± 0.04,0.0135 ± 0.035,-0.0095 ± 0.0092,-0.033 ± 0.016,-0.015 ± 0.0014,0.008 ± 0.0099,0.0015 ± 0.0092,0.001 ± 0.021,0.0325 ± 0.035,0.032 ± 0.028,0.0265 ± 0.043,-0.0205 ± 0.013,-0.19 ± 0.088,-0.94,0.0355 ± 0.005,0.028 ± 0.011,0.0075 ± 0.025
BF4T:tPA,-0.0165 ± 0.032,0.0025 ± 0.00071,0.012 ± 0.023,-0.0305 ± 0.025,-0.0255 ± 0.022,-0.0555 ± 0.025,-0.0025 ± 0.0092,0.005 ± 0.0042,0.0475 ± 0.053,0.0095 ± 0.0078,-0.019 ± 0.0099,-0.0095 ± 0.019,-0.061 ± 0.016,-0.164 ± 0.013,-0.246,-0.0055 ± 0.016,-0.013 ± 0.021,0.0095 ± 0.029
SAg:SRB,-0.0005 ± 0.0078,0.0035 ± 0.0035,0.002 ± 0.0099,0.002 ± 0.0057,-0.017 ± 0.011,-0.109 ± 0.02,0.0005 ± 0.0064,-0.0005 ± 0.005,0.0035 ± 0.0078,-0.0025 ± 0.0035,-0.0035 ± 0.0035,0.0045 ± 0.0021,0.001 ± 0.018,-0.0145 ± 0.015,-0.067,0.0065 ± 0.015,0 ± 0.0042,0.008 ± 0.0085

# From the supplement of paper PMC10331698
